One series deals with HL60. Kind of series: Cytotoxicity IC50 on HL60 cells. In kind it is cell-based. The note with it: Homo sapiens, HL-60. As to the method:
(§1) The preceding KB cells are then incubated in 6- or 96-well plates in the presence of the test compounds of the invention, dissolved in dimethyl sulfoxide (DMSO). The content of surviving cells is measured by the “colony-forming assay” test, in which the cells are redistributed at a density of 100 to 300 cells per well in 24-well plates, for a period of 8 days, and are then stained with Leishman's reagent (0.2% in methanol). The colonies of more than 50 cells are counted visually under a microscope, the survival rate being expressed on the colonies formed in the presence of the compounds of the invention relative to cell colonies not treated with said compounds. The determination of the IC50 values (concentration of compounds in the reaction medium for which 50% of the tested tumor cells survived the treatment) enables comparison of the efficacy of these compounds.
(§2) Table 4 presents the results of the IC50 (cytotoxicity) on different cell lines, according to the protocol described previously, obtained for compounds I14 and I20.

In the next series the test system is HTC116. Put plainly: Cytotoxicity IC50 on HTC116 cells. In kind it is cell-based. As to conditions: Homo sapiens. As for the experimental part:
as §1, §2

In a further series the test system is PC3. Put plainly: Cytotoxicity IC50 on PC3 cells. The series is classed as cell-based. The note with it: Homo sapiens, PC-3. As to the method:
as §1, §2

For a further series, the system named is MCF7R. Kind of series: Cytotoxicity IC50 on MCF7R cells. The series is classed as cell-based. As to conditions: Homo sapiens. As for the experimental part:
as §1, §2

Series [1] deals with U87/GFP cells. Kind of series: Antiproliferative effect on U87/GFP cells (flash cytometry). In kind it is cell-based, human. As to the method: For the U-87/GFP cells, the control of cell proliferation and migration in the presence of the compounds (I) of the invention is performed via a colorimetric method (MTS) and is performed according to known standard protocols. The methodologies implemented use flash cytometry (Trophos S.A., Marseilles, France). The flash cytometry technique involves fluorescence, which consists of irradiating a compound at a set wavelength and of recording the fluorescence emitted at another wavelength. This technique is performed with a flash cytometer and adapted for 96-well test plates. The excitation and emission wavelengths in the context of use of this fluorescence are located in the 485-495 nm range. The measured fluorescence expresses the amount of cells surviving after treatment with the compounds of the invention. The publications by Luby-Phelps K. et al., J. Histochemistry and Cytometry, 2003, 51, 271-274 and Modarai B. et al., Circulation, 2005, 111, 2645-2653 may be mentioned by way of reference for the above methods.
The cells of the U87/GFP lines are cultured in 96-well plates according to a standard methodology described by Bajetto et al., Neurochemistry International, 2006, 43, 31-38 in the presence of different concentrations of the compounds of the invention.
The cell proliferation is determined and quantified according to standard methods known to those skilled in the art. A 100% proliferation is attributed to the untreated cells and a percentage less than 100% is obtained when the same cells are treated with the compounds of the invention.
(§3) The cell proliferation and migration are determined by imaging using a flash cytometer (Trophos S.A., Marseilles, France), and the calculations are performed using the “Metamorph 4.6” imaging signal processing software (Molecular Devices, USA), the use of which, which is known in the field, makes it possible to determine the above two effects independently of each other.

The subject of the next series is caspases 9. Put plainly: Activation of caspases 9 in HL60 cells. In kind it is cell-based, human. As to conditions: 48 hours, 1 μM, 0.1 μM and 0.01 μM. As to the method:
(§4) In this example, in order to show the role of compounds I14 and I20 in this effect, specific products were used: DEVD for caspases 3/7, IEDT for caspases 8, and LEHD for caspases 9. Moreover, colchicine was used as reference compound that induces this activity of caspases. I14 and I20 were tested at three concentrations: 1 μM, 0.1 μM and 0.01 μM.
(§5) The experiments were performed by placing I14 and I20 in contact with HL60 cells for 48 hours, according to the standard protocol described by Margolin et al., J. Biol. Chem. (1997), 272, p. 7223, using standard commercially available diagnostic kits (Calbiochem, USA).

The next series relates to K562. Kind of series: Cytotoxicity IC50 on K562 cells. In kind it is cell-based. The note with it: Homo sapiens. As for the experimental part:
as §1, §2

The test system of the next series is KB cells. Put plainly: Cytotoxicity / cell viability on KB cells (colony-forming assay). The series is classed as cell-based, human. The note with it: for IC50: Homo sapiens, KB, read-out: Cytotoxicity on KB cells (IC50). As to the method:
Cancerous KB cells are also considered, to determine the cell viability (or survival rate). This cell viability is determined according to the teaching of Nicholson K. M. et al., British Journal of Cancer, 1999, 81, 423-430.
KB cells are human carcinoma cell lines, KB-3-1. These cells are maintained in a culture medium, “Dulbecco's modified Eagle's medium” (DMEM—Sigma), which contains 0.11 g/l of sodium pyruvate and 4.5 g/l of glucose, supplemented with 10% (v/v) fetal calf serum, penicillin (32 μg/ml) and streptomycin (50 μg/ml). The cells are cultured as monolayers and are incubated at 37° C. in a humid atmosphere (95% air/5% CO2).
as §1

The next series relates to HTC15. Kind of series: Cytotoxicity IC50 on HTC15 cells. The series is classed as cell-based. As to conditions: Homo sapiens. As to the method:
as §1, §2

The next series has as its system MCF7. Put plainly: Cytotoxicity IC50 on MCF7 cells. The series is classed as cell-based. As to conditions: Homo sapiens. As for the experimental part:
as §1, §2

The test system of another series is OV3. Put plainly: Cytotoxicity IC50 on OV3 cells. In kind it is cell-based. As to conditions: Homo sapiens. As for the experimental part: as §1, §2
The subject of the next series is caspases 8. Put plainly: Activation of caspases 8 in HL60 cells. In kind it is cell-based, human. As to conditions: 48 hours, 1 μM, 0.1 μM and 0.01 μM. As for the experimental part:
as §4, §5

Series [2] deals with U87/GFP cells. Kind of series: Antimigratory effect on U87/GFP cells (scratch technique). In kind it is cell-based, human. As to the method:
The determination of the antimigratory activity of the compounds (I) of the invention on these same cell lines, cultured in MEM medium (Minimum Essential Medium) is performed via the “scratch” technique that consists in scratching a cell lawn using a micropipette cone. By comparison with these same cells not containing the compounds of the invention, the antimigratory effect is determined. A 100% migration is attributed to the untreated cells, whereas, as a function of the concentration of the compounds (I) of the invention, total stoppage of migration is determined by observation of the “scratch” remaining unfilled by the cell migration, by means of computer software.
as §3

The next series deals with HepG2. Kind of series: Cytotoxicity IC50 on HepG2 cells. As to conditions: Homo sapiens. The series is classed as cell-based. As for the experimental part: as §1, §2
A further series deals with A549. Put plainly: Cytotoxicity IC50 on A549 cells. In kind it is cell-based. As to conditions: Homo sapiens. As to the method:
as §1, §2

Another series deals with caspases 3/7. Kind of series: Activation of caspases 3/7 in HL60 cells. The series is classed as cell-based, human. As to conditions: 48 hours. As for the experimental part: as §4, §5
Another series deals with SF268. Put plainly: Cytotoxicity IC50 on SF268 cells. The series is classed as cell-based. The note with it: Homo sapiens, SF-268. As to the method: as §1, §2

Where two headings read alike, the source gives them in different places.

Regarding `Cc1ccc(CN(Cc2ccc(O)c3ncccc23)c2ccc(O)c3ncccc23)cc1` [I14, 5-(((8-hydroxyquinolin-5-yl)(4-methylbenzyl)amino)methyl)quinolin-8-ol], the 50% inhibitory concentration (IC50) in the series with HL60 turned out to be 32.7 ± 6.6 nM; with HTC116 it was 3.2 ± 1.2 nM; in the series with PC3 it was 343 ± 125 nM; in the series on MCF7R it was 37.3 ± 28 nM; with U87/GFP cells [1] (concentration giving 65% inhibition of proliferation) it was 500 nM; in the series on K562, 40.8 ± 22 nM. The IC50 in the series on KB cells (first value of two experiments performed in parallel) turned out to be 2.6 nM; in the series on KB cells (second value of two experiments performed in parallel) it was 1.4 nM; in the series with HTC15, 6 ± 7.3 nM; in the series with MCF7, 5.4 ± 0.9 nM; with OV3, 8 ± 0.4 nM; with U87/GFP cells [2] (concentration giving 40% inhibition of migration), 500 nM. The IC50 with HepG2 was 52.1 ± 14.5 nM; in the series with A549 it was 4.3 ± 0.1 nM; in the series on SF268, 178 ± 83 nM. Moreover, the inhibition at 0.5 µM in the series on U87/GFP cells [1] (Homo sapiens, at 0.5 μM, read-out: Antiproliferative effect on U87/GFP cells: percentage inhibition) stood at 65%; in the series on U87/GFP cells [2] (Homo sapiens, at 0.5 μM, read-out: Antimigratory effect on U87/GFP cells: percentage inhibition), 40%. Besides, in the series with caspases 9, the “effect on the activation of caspases 9” value is “no effect”. Further, the “Cytotoxicity on KB cells (percentage inhibition of cell viability)” value in the series with KB cells (at 1 μM, relative to reference without compound) worked out at 90% at 1 μM. Also, the “effect on the activation of caspases 8” value in the series with caspases 8 was “no effect”. Moreover, the “effect on the activation of caspases 3/7” value with caspases 3/7 (0.01 μM) is on record as “neither 114 nor 120 has an effect”; in the series on caspases 3/7 (1 μM and 0.1 μM), “strong effect”.

By IC50 is commonly meant the concentration needed to halve the response being measured.

The values above are taken from patent US8614230B2, “Derivatives of the aminated hydroxyquinoline class for treating cancers” (Biopharmed, priority 2007, dated 2013).
